Reference: patent US11938121B2, “Treatment of infections and biofilm formation using a cellulose synthase inhibitor” (Purdue Research Foundation, priority 2020, dated 2024)

Target: T1, GFP-CESA6c (central cytosolic domain of AtCESA6) (Arabidopsis thaliana, UniProt Q94JQ6)
T1 construct: made in house; host or cells: E. coli
Assay: MST assay with GFP-CESA6c
Format: binding
Description: To obtain the central cytosolic domain of AtCESA6 for the MST assay, we inserted the GFP coding sequence into the SacI and PstI restriction enzyme sites of the pRSF-Duet-1 vector (Huang et al., 2020). The GFP coding sequence was amplified from the pUBN-GFP-DEST vector. The sequence encoding the central cytosolic domain of CESA6 (CESA6c) was amplified from Col-0 cDNA and fused with GFP at the C-terminus. CESA6c construct was used as a template for creating CESA6c^P595S construct by site-directed mutagenesis. Protein purification was performed as previously described (Huang et al., 2020).
MST assays were carried out using a Monolith NT.115 (NanoTemper) machine at the Chemical Genomics Facility at Purdue University. […] The ES20-1 was dissolved in DMSO, and the final concentration of DMSO was 5% (vol/vol). MST standard capillaries were used to load the samples into the MST instrument. Triplicate reactions were performed for each test. The MST data were processed using MO. Affinity Analysis Version 2.3 software.

T1 sequence (Q94JQ6 322-868): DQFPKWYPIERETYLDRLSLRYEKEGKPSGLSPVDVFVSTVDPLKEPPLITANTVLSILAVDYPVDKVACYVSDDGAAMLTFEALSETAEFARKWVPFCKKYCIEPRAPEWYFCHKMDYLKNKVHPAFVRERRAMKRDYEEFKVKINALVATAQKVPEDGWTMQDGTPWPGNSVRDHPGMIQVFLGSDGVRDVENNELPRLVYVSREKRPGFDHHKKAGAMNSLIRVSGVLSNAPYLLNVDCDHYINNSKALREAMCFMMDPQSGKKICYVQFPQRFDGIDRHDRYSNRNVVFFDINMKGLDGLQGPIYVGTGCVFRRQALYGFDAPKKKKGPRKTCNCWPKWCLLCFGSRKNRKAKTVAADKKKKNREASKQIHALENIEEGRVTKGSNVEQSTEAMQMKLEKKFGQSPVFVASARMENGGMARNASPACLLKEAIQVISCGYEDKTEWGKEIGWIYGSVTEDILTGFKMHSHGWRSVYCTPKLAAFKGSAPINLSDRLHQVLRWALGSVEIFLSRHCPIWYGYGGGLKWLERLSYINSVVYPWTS

## Cc1ccccc1C(=O)NNC(=S)NC(=O)c1ccccc1 [ES20-1]
100 nM GFP-CESA6c
  interaction with CESA6c: interacted
MST
  relative binding affinity to CESA6c: may have a higher binding affinity to CESA6c than ES20
